The conditions of series [1]: healthy volunteers, 6 days of high-dose ritonavir 600 mg bid; cited from earlier work.
For series [2] the following is noted: with ketoconazole vs alone, previous trial EudraCT 2017-004453; cited from earlier work.
The conditions of series [3]: fifth day of ritonavir 100 mg bid vs before ritonavir; 8 healthy volunteers.
A short description of series [4]: Ritonavir plasma exposure during 5-day 100 mg bid therapy. The series is classed as in vivo, human.
A further series has as its system CYP3A4. The experiment in a line: CYP3A4 activity time course with microdosed oral midazolam.
The next series deals with CYP2C19 (Homo sapiens, UniProt P33261). The conditions noted are these: after ritonavir discontinuation vs baseline.

Marks after values point to notes of the source that are not given here.

CYP2C19, sequence (P33261 whole entry): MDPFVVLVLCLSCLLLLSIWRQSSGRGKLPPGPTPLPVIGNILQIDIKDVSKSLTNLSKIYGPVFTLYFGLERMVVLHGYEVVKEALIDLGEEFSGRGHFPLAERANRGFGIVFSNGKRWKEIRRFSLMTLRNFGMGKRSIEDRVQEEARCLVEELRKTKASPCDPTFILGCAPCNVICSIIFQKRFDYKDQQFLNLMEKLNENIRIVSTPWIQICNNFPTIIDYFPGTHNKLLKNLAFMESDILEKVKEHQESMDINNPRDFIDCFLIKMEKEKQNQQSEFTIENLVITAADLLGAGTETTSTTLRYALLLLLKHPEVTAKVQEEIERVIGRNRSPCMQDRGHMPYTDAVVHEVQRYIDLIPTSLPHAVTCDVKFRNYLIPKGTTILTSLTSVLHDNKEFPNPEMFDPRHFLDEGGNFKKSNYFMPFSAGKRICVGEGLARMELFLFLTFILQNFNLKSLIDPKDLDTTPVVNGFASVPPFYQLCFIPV

`O=C(NC[C@H]1CN(c2ccc(N3CCOCC3=O)cc2)C(=O)O1)c1ccc(Cl)s1` [Rivaroxaban, rivaroxaban]: the “Exposure (AUC) increase of rivaroxaban” value in series [1] was 2.5 fold. In addition, the AUCinf ratio in series [2] is given as 2.37 ± 0.53. For the same molecule, the “Geometric mean ratio (GMR) AUC0–24” value in series [3] is on record as 1.87*.
The term AUC(0-t) denotes exposure summed from dosing to a finite time, without extrapolation to infinity. For orientation: Cmax means the peak of the concentration-time curve. The molecule `CC(C)c1nc(CN(C)C(=O)N[C@H](C(=O)N[C@@H](Cc2ccccc2)C[C@H](O)[C@H](Cc2ccccc2)NC(=O)OCc2cncs2)C(C)C)cs1` [ritonavir] showed an AUC(0-t) in series [4] (human, plasma, oral, 100 mg) of 4590 to 5330 ng·h/mL. Moreover, the Cmax in series [4] (human, plasma, oral, 100 mg, Cmax of ritonavir, remaining 4 days of 100 mg bid) lay within 1780 to 2110 ng/mL. Moreover, in series [4] (two days after the last ritonavir dose, LLOQ 10 ng/mL), the Ritonavir plasma concentrations result was “close to or below the LLOQ”. Also, the “Estimated time to full recovery of CYP3A4 activity” value in the series with CYP3A4 (after a 5-day treatment course with ritonavir 100 mg bid) is 10 to 12 days.
Consider `Cc1ncc2n1-c1ccc(Cl)cc1C(c1ccccc1F)=NC2` [Midazolam, midazolam], for which the “Midazolam AUC2–4 increase, times baseline values” in the series on CYP3A4 (from day 2 to day 5 of ritonavir treatment) is 11.1–15.5 times baseline.
As to `COc1ccc2[nH]c([S+]([O-])Cc3ncc(C)c(OC)c3C)nc2c1` (stereo not drawn) [Omeprazole, omeprazole], the “Decrease of omeprazole AUC0–4” value at CYP2C19 is given as “approximately 35%”.

These data come from PMC11052790 (Clinical Pharmacokinetics, 2024).
